Molecules are shown by their SMILES. Values after ≈ are worked out from the molar mass of the structure shown. Like-named read-outs stand apart in the source and are kept apart here.

Assay [1] concerns quinolone susceptible pneumococci (ciprofloxacin MICs ≦4.0 μg/ml). The experiment in a line: Agar dilution MICs of 207 quinolone susceptible pneumococcal strains. In kind it is cell-based, Streptococcus pneumoniae. The conditions noted are these: agar dilution; for MIC: read-out: MIC range. How it is done: All susceptible, and some intermediate and resistant strains, were recent U.S. isolates. The remainder of intermediate and resistant strains were isolated in South Africa, Spain, France, Central and Eastern Europe, and Korea. […] Additionally these strains were tested for mutations in parC, gyrA, parE, and gyrB (Pan, et al., Antimicrob. Agents Chemother. 40:2321-2326, 1996) and for efflux mechanism (Brenwald, et al., Antimicrob. Agents Chemother. 42:2032-2035, 1998). For time-kill studies, 4 penicillin susceptible, 4 intermediate and 4 resistant strains (2 quinolone resistant) were tested, while for PAE studies 5 quinolone susceptible and 1 resistant strains were studied.
(§1) Agar dilution methodology was performed on 234 strains as described previously (M. R. Jacobs, Clin. Infect. Dis. 15:119-127, 1992; Jacobs, et al., Rev. Med. Microbiol. 6:77-93, 1995), using Mueller-Hinton agar (BBL Microbiology Systems, Cockeysville, Md.) supplemented with 5% sheep blood. Broth MICs for 12 strains tested by time-kill and 6 tested by PAE were performed according to NCCLS recommendations (Methods for Dilution Antimicrobial Susceptibility Tests for Bacteria that Grow Aerobically, 3rd Edition, NCCLS, Villanova, Pa.) using cation-adjusted Mueller-Hinton broth with 5% lysed defibrinated horse blood. Standard quality control strains, including Streptococcus pneumoniae ATCC 49619, were included in each run of agar and broth dilution MICs.

In another assay the test system is pneumococcal strains. Nature of the assay: Microbroth dilution MICs of strains tested by time-kill and PAE. The following applies: Streptococcus pneumoniae, read-out: Microdilution MIC. Type of assay: cell-based. On the procedure: as §1
A general note: Broth dilution looks for growth in wells or tubes with falling amounts of substance.

The subject of assay [2] is pneumococci (5 quinolone susceptible and 1 resistant strains). The experiment in a line: Post-antibiotic effect (PAE) testing. Type of assay: cell-based, Streptococcus pneumoniae. The conditions noted are these: 10×MIC; range over strains. How it is done:
The post-antibiotic effect (PAE) (Craig, et al., V. Lorian (ed.) Antibiotics in Laboratory Medicine, Williams and Wilkins, Baltimore, pages 296-399, 1996) was determined by the viable plate count method, using Mueller-Hinton broth (MHB) supplemented with 5% lysed horse blood when testing pneumococci. […] Additionally, the one quinolone resistant strain was exposed at quinolone concentrations 5×MIC. Tubes containing 5 ml broth with antibiotic were inoculated with approximately 5×10^6 cfu/ml. Growth controls with inoculum but no antibiotic were included with each experiment. Tubes were placed in a shaking water bath at 35° C. for 1 h. At the end of the exposure period, cultures were diluted 1:1000 to remove antibiotic.
Viability counts were determined before exposure and immediately after dilution (0 h), and then every 2 h until tube turbidity reached a #1 McFarland standard. Inocula were prepared by suspending growth from an overnight blood agar plate in broth. The broth was incubated at 35° C. for 2-4 h in a shaking water bath until turbidity matched a #1 McFarland standard, and checked for viability by plate counts (Spangler, et al., Antimicrob. Agents Chemother. 41:2173-9176, 1997; Spangler, et al., Antimicrob. Agents Chemother. 42:1253-1255, 1998).
The PAE was defined as PAE=T-C; T=time required for viability counts of an antibiotic-exposed culture to increase by 1 log10 above counts immediately after dilution; C=corresponding time for growth control. For each experiment, viability counts (log10 cfu/ml) were plotted against time, and results expressed as the mean of two separate assays±S D (Craig, et al., V. Lorian (ed), Antibiotics in Laboratory Medicine, Williams and Wilkins, Baltimore, pages 296-329, 1996).

[3] abbreviates: Streptococcus pneumoniae, Penicillin I strains.
[4] abbreviates: Streptococcus pneumoniae, Penicillin I strains, read-out: MIC90.
The mark [5] stands for this setting: Streptococcus pneumoniae, Penicillin R strains.
[6] abbreviates: Streptococcus pneumoniae, Penicillin R strains, read-out: MIC90.
Setting [7] is: Streptococcus pneumoniae, Penicillin S strains.
[8] abbreviates: Streptococcus pneumoniae, Penicillin S strains, read-out: MIC90.
[9] abbreviates: strain 1 (S) penicillin susceptible.
[10] abbreviates: strain 2 (S) penicillin susceptible.
Setting [11] is: strain 3 (S) penicillin susceptible, quinolone-resistant.
The mark [12] stands for this setting: strain 4 (S) penicillin susceptible, quinolone-resistant.
[13] abbreviates: strain 5 (I) penicillin intermediate.
The mark [14] stands for this setting: strain 6 (I) penicillin intermediate.
[15] abbreviates: strain 7 (I) penicillin intermediate.
The mark [16] stands for this setting: strain 8 (I) penicillin intermediate.
Setting [17] is: strain 9 (R) penicillin resistant.
Setting [18] is: strain 11 (R) penicillin resistant.
Where [19] appears, read: strain 12 (R) penicillin resistant.

A word on the MIC50: it is the lowest concentration that inhibits either 50% of growth or 50% of the strains tested, depending on the study. Lower therefore signals greater potency. Usually MIC90 stands for the lowest concentration that inhibits either 90% of growth or 90% of the strains tested, depending on the study. The term MIC denotes the lowest concentration that inhibits growth of the organism. Take `CC[C@H]1OC(=O)[C@H](C)[C@@H](O[C@H]2C[C@@](C)(OC)[C@@H](O)[C@H](C)O2)[C@H](C)[C@@H](O[C@@H]2O[C@H](C)C[C@H](N(C)C)[C@H]2O)[C@](C)(OC)C[C@@H](C)C(=O)[C@H](C)[C@@H](O)[C@]1(C)O` [Clarithromycin, clarithromycin]: the MIC50 is 0.03 µg/mL (≈ 0.0401 µM) in assay [1] (setting [3]), 2 µg/mL (≈ 2.67 µM) in assay [1] (setting [5]) and 0.03 µg/mL (≈ 0.0401 µM) in assay [1] (setting [7]). For the same compound, the MIC90 in assay [1] (setting [4]) was 32 µg/mL (≈ 42.8 µM); in assay [1] (setting [6]) it was more than 128 µg/mL; in assay [1] (setting [8]) it was 0.06 µg/mL (≈ 0.0802 µM); in assay [1] (Penicillin R strains), more than 128.0 µg/mL. Further, the MIC is 0.008 µg/mL (≈ 0.0107 µM) with pneumococcal strains (setting [9]); 0.03 µg/mL (≈ 0.0401 µM) in the assay on pneumococcal strains (setting [10]); more than 64 µg/mL in the assay with pneumococcal strains (setting [11]); 0.03 µg/mL (≈ 0.0401 µM) in the assay with pneumococcal strains (setting [12]); 32 µg/mL (≈ 42.8 µM) with pneumococcal strains (setting [13]); 0.008 µg/mL (≈ 0.0107 µM) in the assay with pneumococcal strains (setting [14]). Moreover, the minimal inhibitory concentration (MIC) is 0.016 µg/mL (≈ 0.0214 µM) in the assay with pneumococcal strains (setting [15]); 0.03 µg/mL (≈ 0.0401 µM) with pneumococcal strains (setting [16]); more than 64 µg/mL in the assay on pneumococcal strains (setting [17]); more than 64 µg/mL with pneumococcal strains (strain 10 (I)); 0.03 µg/mL (≈ 0.0401 µM) with pneumococcal strains (setting [18]); more than 64 µg/mL in the assay with pneumococcal strains (setting [19]). Further, the “PAE for non-quinolone compounds” value in assay [2] lay in the range of 1.8 to 4.5 h.
Turning to `CC1(C)S[C@@H]2[C@H](NC(=O)Cc3ccccc3)C(=O)N2[C@H]1C(=O)O` [Penicillin, penicillin G], the MIC50 in assay [1] (setting [3]) turned out to be 0.25 µg/mL (≈ 0.748 µM); in assay [1] (setting [5]), 4 µg/mL (≈ 12 µM); in assay [1] (setting [7]), 0.016 µg/mL (≈ 0.0478 µM). Also, the MIC90 in assay [1] (setting [4]) stood at 1 µg/mL (≈ 2.99 µM); in assay [1] (setting [6]) it was 4 µg/mL (≈ 12 µM); in assay [1] (setting [8]), 0.03 µg/mL (≈ 0.0897 µM). Moreover, the MIC is 0.125 to 1 µg/mL (≈ 0.374 to 2.99 µM) in assay [1] (setting [3]); 2 to 16 µg/mL (≈ 5.98 to 47.8 µM) in assay [1] (setting [5]); 0.008 to 0.06 µg/mL (≈ 0.0239 to 0.179 µM) in assay [1] (setting [7]); 0.06 µg/mL (≈ 0.179 µM) in the assay on pneumococcal strains (setting [9]); 0.03 µg/mL (≈ 0.0897 µM) in the assay with pneumococcal strains (setting [10]); 0.016 µg/mL (≈ 0.0478 µM) with pneumococcal strains (setting [11]). Further, the minimum inhibitory concentration (MIC) in the assay with pneumococcal strains (setting [12]) came out at 0.016 µg/mL (≈ 0.0478 µM); in the assay with pneumococcal strains (setting [13]), 0.25 µg/mL (≈ 0.748 µM); in the assay on pneumococcal strains (setting [14]) it was 0.25 µg/mL (≈ 0.748 µM); in the assay on pneumococcal strains (setting [15]), 1 µg/mL (≈ 2.99 µM); with pneumococcal strains (setting [16]), 0.5 µg/mL (≈ 1.5 µM); in the assay with pneumococcal strains (setting [17]), 4 µg/mL (≈ 12 µM). The minimal inhibitory concentration (MIC) with pneumococcal strains (strain 10 (I)) was 2 µg/mL (≈ 5.98 µM); in the assay with pneumococcal strains (setting [18]) it was 4 µg/mL (≈ 12 µM); with pneumococcal strains (setting [19]) it was 4 µg/mL (≈ 12 µM).
Take `CC[C@H]1OC(=O)[C@H](C)[C@@H](O[C@H]2C[C@@](C)(OC)[C@@H](O)[C@H](C)O2)[C@H](C)[C@@H](O[C@@H]2O[C@H](C)C[C@H](N(C)C)[C@H]2O)[C@](C)(O)C[C@@H](C)CN(C)[C@H](C)[C@@H](O)[C@]1(C)O` [Azithromycin, azithromycin]: the MIC90 in assay [1] (setting [4]) is more than 128 µg/mL; in assay [1] (setting [6]), more than 128 µg/mL; in assay [1] (setting [8]), 0.5 µg/mL (≈ 0.668 µM); in assay [1] (Penicillin I strains) it was more than 128.0 µg/mL; in assay [1] (Penicillin R strains), more than 128.0 µg/mL. This compound yielded an MIC50 in assay [1] (setting [5]) of 4 µg/mL (≈ 5.34 µM). Besides, the MIC is 0.008 µg/mL (≈ 0.0107 µM) with pneumococcal strains (setting [9]); 0.06 µg/mL (≈ 0.0801 µM) in the assay on pneumococcal strains (setting [10]); more than 64 µg/mL in the assay with pneumococcal strains (setting [11]); more than 64 µg/mL in the assay with pneumococcal strains (setting [13]); 0.03 µg/mL (≈ 0.0401 µM) in the assay on pneumococcal strains (setting [14]); more than 64 µg/mL with pneumococcal strains (setting [17]). Also, the MIC in the assay with pneumococcal strains (strain 10 (I)) and in the assay with pneumococcal strains (setting [19]) was more than 64 µg/mL in each case. The “PAE for non-quinolone compounds” value in assay [2] lay in the range of 1.3 to 3.0 h.
